Measured values taken from US20240067693A1, “POLYPEPTIDES AND USES THEREOF” (MEDIMMUNE LIMITED, priority 2020, published 2024).
Numbered stars: 1 amine (or outer) side, 2 acyl side, 3 side chain; on linkers, the order of the positions; unused ones are H or OH. Bridge positions count the residues as written; N and C are the ends. Square brackets hold non-standard residues; d marks the D form. Side chains are listed from the residue outwards. Peptide text beside a SMILES is read from it. * marks the point of attachment. C20 diacid = O=C(O)CCCCCCCCCCCCCCCCCCC(=O)*; C18 diacid = O=C(O)CCCCCCCCCCCCCCCCC(=O)*; γGlu = O=C(O)[C@H](CCC(=O)[*:2])N[*:1]; Aib = CC(C)(N)C(=O)O

Assays:
[1] = biological target: T1, human amylin receptor (calcitonin receptor co-expressed with receptor activity modifying protein, RAMP3) (hAMYR3) (Homo sapiens, UniProt O60896+P30988); experiment: cAMP production in 1321N1 cells with stable recombinant expression of human amylin receptor (hAMYR3); type: cell-based; details: for Ratio (selectivity hAMYR vs hCTR, ratio of EC50 values at the two receptors): EC50 hCTR / EC50 hAMYR3; for EC50: cAMP, 1321N1 cells, assay buffer with 0.1% BSA, read-out: EC50 (pM) hAMYR3
T1 construct: expressed in transfected cells
T1 sequence (P30988 25-474): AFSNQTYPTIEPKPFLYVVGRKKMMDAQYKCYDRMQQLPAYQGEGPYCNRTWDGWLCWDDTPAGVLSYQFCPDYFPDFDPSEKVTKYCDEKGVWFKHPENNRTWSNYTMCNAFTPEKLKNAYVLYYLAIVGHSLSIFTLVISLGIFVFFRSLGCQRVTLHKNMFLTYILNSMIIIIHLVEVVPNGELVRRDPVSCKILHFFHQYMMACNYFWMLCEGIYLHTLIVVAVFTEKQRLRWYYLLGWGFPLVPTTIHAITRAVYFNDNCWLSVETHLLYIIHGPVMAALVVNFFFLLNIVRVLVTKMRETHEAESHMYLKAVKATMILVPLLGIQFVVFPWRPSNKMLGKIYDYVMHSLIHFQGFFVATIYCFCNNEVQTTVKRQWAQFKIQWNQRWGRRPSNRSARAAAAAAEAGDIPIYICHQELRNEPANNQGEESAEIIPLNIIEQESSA
T1 sequence (O60896 24-148 partner): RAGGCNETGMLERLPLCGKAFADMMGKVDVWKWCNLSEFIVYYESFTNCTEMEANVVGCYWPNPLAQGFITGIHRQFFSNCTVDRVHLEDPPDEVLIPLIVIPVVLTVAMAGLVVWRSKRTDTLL
Summary of the method: (§1)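 EC50 values come from 4-parameter logistic fits of HTRF cAMP signal, normalised to maximal calcitonin or amylin effect. Peptides were tested in duplicate for 30 min at RT in IBMX-containing (0.5 mM) BSA/HEPES buffer pH 7.4 on stable 1321N1 (human CTR, AMYR3) or HEK (rat CTR, AMYR3) lines.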

[2] = biological target: T2, human calcitonin receptor (hCTR) (Homo sapiens, UniProt P30988); experiment: cAMP production in 1321N1 cells with stable recombinant expression of human calcitonin receptor (hCTR); type: cell-based; details: cAMP, 1321N1 cells, assay buffer with 0.1% BSA; read-out: EC50 (pM) hCTR
T2 construct: expressed in transfected cells
T2 sequence (P30988 25-474): T1 sequence (P30988 25-474)
Summary of the method: as §1

## CC(C)C[C@H](NC(=O)[C@H](CCCNC(=N)N)NC(=O)[C@H](CCC(N)=O)NC(=O)[C@@H](NC(=O)[C@H](C)NC(=O)[C@@H]1CSSC[C@H](NC(=O)[C@H](CCCCN)NC(=O)[C@@H](N)CCCCNC(=O)CC[C@H](NC(=O)CCCCCCCCCCCCCCCCC(=O)O)C(=O)O)C(=O)N[C@@H](CC(N)=O)C(=O)N[C@@H]([C@@H](C)O)C(=O)N[C@@H](C)C(=O)N[C@@H]([C@@H](C)O)C(=O)N1)[C@@H](C)O)C(=O)N[C@@H](C)C(=O)N[C@@H](CC(N)=O)C(=O)N[C@@H](Cc1ccccc1)C(=O)N[C@@H](CC(C)C)C(=O)NC(C)(C)C(=O)N[C@@H](Cc1c[nH]cn1)C(=O)N[C@@H](CO)C(=O)N[C@@H](CO)C(=O)N[C@@H](CC(N)=O)C(=O)N[C@@H](CC(N)=O)C(=O)N[C@@H](Cc1ccccc1)C(=O)NCC(=O)N1CCC[C@H]1C(=O)NC(C)(C)C(=O)N[C@@H](CC(C)C)C(=O)N1CCC[C@H]1C(=O)N1CCC[C@H]1C(=O)N[C@H](C(=O)N[C@@H](CC(N)=O)C(=O)N[C@H](C(=O)NCC(=O)N[C@@H](CO)C(=O)N[C@@H](CC(N)=O)C(=O)N[C@H](C(=O)N[C@@H](Cc1ccc(O)cc1)C(N)=O)[C@@H](C)O)C(C)C)[C@@H](C)O [Peptide 94, K(γE-C18diacid)K[CNTATC]ATQRLANFL(Aib)HSSNNFGP(Aib)LPPTNVGSNTY-amide] (H-K([γGlu-C18 diacid])KCNTATCATQRLANFL[Aib]HSSNNFGP[Aib]LPPTNVGSNTY-NH2; disulfide 3-8; N-terminus assumed)
[1]
  Ratio (selectivity hAMYR vs hCTR, ratio of EC50 values at the two receptors): 6
  EC50: 322 pM
[2]
  EC50: 1900 pM

## CC[C@H](C)[C@H](NC(=O)[C@@H]1CCCN1C(=O)CNC(=O)[C@H](Cc1ccccc1)NC(=O)[C@H](CC(N)=O)NC(=O)[C@@H]1CCCN1C(=O)[C@H](CO)NC(=O)[C@H](CO)NC(=O)[C@H](Cc1c[nH]cn1)NC(=O)C(C)(C)NC(=O)[C@H](CC(C)C)NC(=O)[C@H](Cc1ccccc1)NC(=O)[C@H](CC(N)=O)NC(=O)[C@H](C)NC(=O)[C@H](CC(C)C)NC(=O)[C@H](CCCNC(=N)N)NC(=O)[C@H](CCC(N)=O)NC(=O)[C@@H](NC(=O)[C@H](C)NC(=O)[C@@H]1CSSC[C@H](NC(=O)[C@H](CCCCN)NC(=O)[C@@H](N)CCCCNC(=O)CC[C@H](NC(=O)CCCCCCCCCCCCCCCCC(=O)O)C(=O)O)C(=O)N[C@@H](CC(N)=O)C(=O)N[C@@H]([C@@H](C)O)C(=O)N[C@@H](C)C(=O)N[C@@H]([C@@H](C)O)C(=O)N1)[C@@H](C)O)C(=O)N[C@@H](CC(C)C)C(=O)N1CCC[C@H]1C(=O)N1CCC[C@H]1C(=O)N[C@H](C(=O)N[C@@H](CC(N)=O)C(=O)N[C@H](C(=O)NCC(=O)N[C@@H](CO)C(=O)N[C@@H](CCC(=O)O)C(=O)N[C@H](C(=O)N[C@@H](Cc1ccc(O)cc1)C(N)=O)[C@@H](C)O)C(C)C)[C@@H](C)O [Peptide 139] (H-K([γGlu-C18 diacid])KCNTATCATQRLANFL[Aib]HSSPNFGPILPPTNVGSETY-NH2; disulfide 3-8; N-terminus assumed)
[1]
  Ratio (selectivity hAMYR vs hCTR, ratio of EC50 values at the two receptors): 3.7
  EC50: 285 pM
[2]
  EC50: 1040 pM

## CC[C@H](C)[C@H](NC(=O)[C@H](C)NC(=O)[C@@H]1CCCN1C(=O)[C@H](Cc1ccccc1)NC(=O)[C@H](CC(N)=O)NC(=O)[C@@H]1CCCN1C(=O)[C@@H]1CCCN1C(=O)[C@H](CO)NC(=O)[C@H](Cc1c[nH]cn1)NC(=O)[C@@H](NC(=O)[C@H](CC(C)C)NC(=O)[C@H](Cc1ccccc1)NC(=O)[C@H](CC(N)=O)NC(=O)[C@H](C)NC(=O)[C@H](CC(C)C)NC(=O)[C@H](CCCNC(=N)N)NC(=O)[C@H](CCC(N)=O)NC(=O)[C@@H](NC(=O)[C@H](C)NC(=O)[C@@H]1CSSC[C@H](NC(=O)[C@@H](N)CCCCNC(=O)CC[C@H](NC(=O)CC[C@H](NC(=O)CCCCCCCCCCCCCCCCCCC(=O)O)C(=O)O)C(=O)O)C(=O)N[C@@H](CC(N)=O)C(=O)N[C@@H]([C@@H](C)O)C(=O)N[C@@H](C)C(=O)N[C@@H]([C@@H](C)O)C(=O)N1)[C@@H](C)O)C(C)C)C(=O)N[C@@H](CC(C)C)C(=O)N[C@@H](CO)C(=O)N1CCC[C@H]1C(=O)N[C@H](C(=O)N[C@@H](CC(N)=O)C(=O)N[C@H](C(=O)NCC(=O)N[C@@H](CO)C(=O)N[C@@H](CC(N)=O)C(=O)N[C@H](C(=O)N[C@@H](Cc1ccc(O)cc1)C(N)=O)[C@@H](C)O)C(C)C)[C@@H](C)O [Peptide 119] (H-K([γGlu-γGlu-C20 diacid])CNTATCATQRLANFLVHSPPNFPAILSPTNVGSNTY-NH2; disulfide 2-7; N-terminus assumed)
[1]
  Ratio (selectivity hAMYR vs hCTR, ratio of EC50 values at the two receptors): 24
  EC50: 1460 pM
[2]
  EC50: 34700 pM

## CC[C@H](C)[C@H](NC(=O)[C@@H]1CCCN1C(=O)CNC(=O)[C@H](Cc1ccccc1)NC(=O)[C@H](CC(N)=O)NC(=O)C(C)(C)NC(=O)[C@H](CO)NC(=O)[C@H](CO)NC(=O)[C@H](Cc1c[nH]cn1)NC(=O)[C@@H](NC(=O)[C@H](CC(C)C)NC(=O)[C@H](Cc1ccccc1)NC(=O)[C@H](CC(N)=O)NC(=O)[C@H](C)NC(=O)[C@H](CC(C)C)NC(=O)[C@H](CCCNC(=N)N)NC(=O)[C@H](CCC(N)=O)NC(=O)[C@@H](NC(=O)[C@H](C)NC(=O)[C@@H]1CSSC[C@H](NC(=O)[C@H](CCCCN)NC(=O)[C@@H](N)CCCCNC(=O)CC[C@H](NC(=O)CCCCCCCCCCCCCCCCC(=O)O)C(=O)O)C(=O)N[C@@H](CC(N)=O)C(=O)N[C@@H]([C@@H](C)O)C(=O)N[C@@H](C)C(=O)N[C@@H]([C@@H](C)O)C(=O)N1)[C@@H](C)O)C(C)C)C(=O)NC(C)(C)C(=O)N1CCC[C@H]1C(=O)N1CCC[C@H]1C(=O)N[C@H](C(=O)N[C@@H](CC(N)=O)C(=O)N[C@H](C(=O)NCC(=O)N[C@@H](CO)C(=O)N[C@@H](CC(N)=O)C(=O)N[C@H](C(=O)N[C@@H](Cc1ccc(O)cc1)C(N)=O)[C@@H](C)O)C(C)C)[C@@H](C)O [Peptide 79, K(γE-C18diacid)K[CNTATC]ATQRLANFLVHSS(Aib)NFGPI(Aib)PPTNVGSNTY-amide] (H-K([γGlu-C18 diacid])KCNTATCATQRLANFLVHSS[Aib]NFGPI[Aib]PPTNVGSNTY-NH2; disulfide 3-8)
[1]
  Ratio (selectivity hAMYR vs hCTR, ratio of EC50 values at the two receptors): 7
  EC50: 659 pM
[2]
  EC50: 4800 pM

## CC[C@H](C)[C@H](NC(=O)[C@@H]1CCCN1C(=O)CNC(=O)[C@H](Cc1ccccc1)NC(=O)[C@H](CC(N)=O)NC(=O)[C@H](CC(N)=O)NC(=O)[C@H](CO)NC(=O)[C@H](CO)NC(=O)[C@H](Cc1c[nH]cn1)NC(=O)C(C)(C)NC(=O)[C@H](CC(C)C)NC(=O)[C@H](Cc1ccccc1)NC(=O)[C@H](CC(N)=O)NC(=O)[C@H](C)NC(=O)[C@H](CC(C)C)NC(=O)[C@H](CCCNC(=N)N)NC(=O)[C@H](CCC(N)=O)NC(=O)[C@@H](NC(=O)[C@H](C)NC(=O)[C@@H]1CSSC[C@H](NC(=O)[C@H](CCCCN)NC(=O)[C@@H](N)CCCCNC(=O)CC[C@H](NC(=O)CCCCCCCCCCCCCCCCC(=O)O)C(=O)O)C(=O)N[C@@H](CC(N)=O)C(=O)N[C@@H]([C@@H](C)O)C(=O)N[C@@H](C)C(=O)N[C@@H]([C@@H](C)O)C(=O)N1)[C@@H](C)O)C(=O)N[C@@H](CC(C)C)C(=O)N1CCC[C@H]1C(=O)N1CCC[C@H]1C(=O)N[C@H](C(=O)N[C@@H](CC(N)=O)C(=O)N[C@H](C(=O)NCC(=O)N[C@@H](CO)C(=O)N[C@@H](CC(N)=O)C(=O)N[C@H](C(=O)N1CCC[C@H]1C(N)=O)[C@@H](C)O)C(C)C)[C@@H](C)O [Peptide 136] (H-K([γGlu-C18 diacid])KCNTATCATQRLANFL[Aib]HSSNNFGPILPPTNVGSNTP-NH2; disulfide 3-8; N-terminus assumed)
[1]
  Ratio (selectivity hAMYR vs hCTR, ratio of EC50 values at the two receptors): 0.8
  EC50: 122 pM
[2]
  EC50: 101 pM

## CC[C@H](C)[C@H](NC(=O)[C@@H]1CCCN1C(=O)CNC(=O)[C@H](Cc1ccccc1)NC(=O)[C@H](CC(N)=O)NC(=O)[C@H](CC(N)=O)NC(=O)[C@H](CO)NC(=O)[C@H](CO)NC(=O)[C@H](Cc1c[nH]cn1)NC(=O)C(C)(C)NC(=O)[C@H](CC(C)C)NC(=O)[C@H](Cc1ccccc1)NC(=O)[C@H](CC(N)=O)NC(=O)[C@H](C)NC(=O)[C@H](CC(C)C)NC(=O)[C@H](CCCNC(=N)N)NC(=O)[C@H](CCC(N)=O)NC(=O)[C@@H](NC(=O)[C@H](C)NC(=O)[C@@H]1CSSC[C@H](NC(=O)[C@H](CCCCN)NC(=O)[C@@H](N)CCCCNC(=O)CC[C@H](NC(=O)CCCCCCCCCCCCCCCCC(=O)O)C(=O)O)C(=O)N[C@@H](CC(N)=O)C(=O)N[C@@H]([C@@H](C)O)C(=O)N[C@@H](C)C(=O)N[C@@H]([C@@H](C)O)C(=O)N1)[C@@H](C)O)C(=O)N[C@@H](CC(C)C)C(=O)N1CCC[C@H]1C(=O)N1CCC[C@H]1C(=O)N[C@H](C(=O)N1CCC[C@H]1C(=O)N[C@H](C(=O)NCC(=O)N[C@@H](CO)C(=O)N[C@@H](CC(N)=O)C(=O)N[C@H](C(=O)N[C@@H](Cc1ccc(O)cc1)C(N)=O)[C@@H](C)O)C(C)C)[C@@H](C)O [Peptide 134] (H-K([γGlu-C18 diacid])KCNTATCATQRLANFL[Aib]HSSNNFGPILPPTPVGSNTY-NH2; disulfide 3-8; N-terminus assumed)
[1]
  Ratio (selectivity hAMYR vs hCTR, ratio of EC50 values at the two receptors): 7.9
  EC50: 281 pM
[2]
  EC50: 2220 pM
